Source: ChEMBL document CHEMBL1148408, “Inhibitors of serine proteases as potential therapeutic agents: the road from thrombin to tryptase to cathepsin G” (J Med Chem, 2004)

system: not listed separately; assay: Oral bioavailability; assay type: ADME, organism-based; settings: eutheria, in vivo

Row | Compound | bioavailability [%]
1 | CN[C@H](Cc1ccccc1)C(=O)N1CCC[C@H]1C(=O)N[C@@H](CCCNC(=N)N)C(=O)c1nc2ccc(C(=O)O)cc2s1 | 3
2 | CN[C@H](Cc1ccccc1)C(=O)N1CCC[C@H]1C(=O)N[C@@H](CCCN=C(N)N)C(=O)c1nc2ccccc2s1 | 1

molecular target: T1, Cathepsin G (Homo sapiens, UniProt P08311); assay: Inhibitory activity against human Cathepsin G; settings: not given
T1 sequence (P08311 whole entry): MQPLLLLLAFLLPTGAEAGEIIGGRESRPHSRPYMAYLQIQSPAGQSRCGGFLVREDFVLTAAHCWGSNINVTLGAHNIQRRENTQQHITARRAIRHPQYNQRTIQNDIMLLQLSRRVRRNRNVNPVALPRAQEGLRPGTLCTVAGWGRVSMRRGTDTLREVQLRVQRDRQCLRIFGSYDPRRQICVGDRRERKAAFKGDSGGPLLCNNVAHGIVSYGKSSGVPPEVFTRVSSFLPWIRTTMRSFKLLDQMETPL

Row | Compound | IC50 [nM]
3 | CN(Cc1ccccc1)C(=O)c1cc2ccccc2cc1C(=O)C(c1cccc2ccccc12)P(=O)(O)O (stereo not drawn) | 1000
4 | CN(CC(=O)NCC(c1ccccc1)c1ccccc1)C(=O)c1cc2ccccc2cc1C(=O)C(c1cccc2ccccc12)P(=O)(O)O (stereo not drawn) | 500
5 | O=C(c1ccc2ccccc2c1)C(c1cccc2ccccc12)P(=O)(O)O (stereo not drawn) | 4100
6 | CN(CC(=O)NCCc1ccccc1)C(=O)c1cc2ccccc2cc1C(=O)C(c1cccc2ccccc12)P(=O)(O)O (stereo not drawn) | 1300

molecular target: T2, Cathepsin G (Homo sapiens) (UniProt P08311); assay: Inhibitory activity against human Cathepsin G at 100 uM; Not active; settings: not given
T2 sequence (whole entry): T1 sequence (P08311 whole entry)

Row | Compound | inhibition [%]
7 | O=C(Cc1ccc2ccccc2c1)C(c1cccc2ccccc12)P(=O)(O)O (stereo not drawn) | < 50
8 | O=C(c1ccc2ccccc2c1)C(c1ccccc1)P(=O)(O)O (stereo not drawn) | < 50
9 | O=P(O)(O)C(Cc1ccc2ccccc2c1)c1cccc2ccccc12 (stereo not drawn) | < 50
10 | O=P(O)(O)C(c1cccc2ccccc12)S(=O)(=O)c1ccc2ccccc2c1 (stereo not drawn) | < 50
11 | O=C(c1cccc2ccccc12)C(c1cccc2ccccc12)P(=O)(O)O (stereo not drawn) | < 50
12 | O=P(O)(O)C(c1cccc2ccccc12)C(O)c1ccc2ccccc2c1 (stereo not drawn) | < 50
13 | CC(C(=O)c1ccc2ccccc2c1)(c1cccc2ccccc12)P(=O)(O)O (stereo not drawn) | < 50
14 | O=C(c1ccc2ccccc2c1)C(c1ccc2ccccc2c1)P(=O)(O)O (stereo not drawn) | < 50

system: Canis familiaris; assay: In vivo antithrombotic activity using canine thrombosis model; assay type: functional; settings: Canis lupus familiaris

Row | Compound | ED50 [mg/kg]
15 | CN[C@H](Cc1ccccc1)C(=O)N1CCC[C@H]1C(=O)N[C@@H](CCCNC(=N)N)C(=O)c1nc2ccc(C(=O)O)cc2s1 | 0.47

system: Oryctolagus cuniculus; assay: In vivo antithrombotic activity using rabbit thrombosis model; assay type: functional; settings: not given

Row | Compound | ED50 [mg/kg]
16 | CN[C@H](Cc1ccccc1)C(=O)N1CCC[C@H]1C(=O)N[C@@H](CCCNC(=N)N)C(=O)c1nc2ccc(C(=O)O)cc2s1 | 0.3
17 | CN[C@H](Cc1ccccc1)C(=O)N1CCC[C@H]1C(=O)N[C@H](C=O)CCCNC(=N)N | 0.13
18 | CN[C@H](Cc1ccccc1)C(=O)N1CCC[C@H]1C(=O)N[C@@H](CCCN=C(N)N)C(=O)c1nc2ccccc2s1 | 0.29

molecular target: T3, Prothrombin (Homo sapiens, UniProt P00734); assay: Binding activity against human alpha thrombin; settings: not given

Row | Compound | IC50 [nM]
19 | CN[C@@H](C(=O)N1CCC[C@H]1C(=O)N[C@@H](CCCN=C(N)N)C(=O)c1nc2ccccc2s1)C(c1ccccc1)c1ccccc1 | 4.5

molecular target: T3, Prothrombin; assay: Binding affinity to human thrombin; settings: not given

Row | Compound | Ki [nM]
20 | CN[C@@H](C(=O)N1CCC[C@H]1C(=O)N[C@@H](CCCN=C(N)N)C(=O)c1nc2ccccc2s1)C(c1ccccc1)c1ccccc1 | 0.00065
21 | CN[C@H](Cc1ccccc1)C(=O)N1CCC[C@H]1C(=O)N[C@@H](CCCN=C(N)N)C(=O)c1nc2ccccc2o1 | 6.2
22 | N=C(N)NCCC[C@@H]1NC(=O)[C@@H]2CCCN2C(=O)[C@@H](NC=O)NC(=O)CCCCCCNC(=O)C1=O | 260
23 | CN[C@H](Cc1ccccc1)C(=O)N1CCC[C@H]1C(=O)N[C@@H](CCCNC(=N)N)C(=O)c1nccs1 | 2.1
24 | CN[C@H](Cc1ccccc1)C(=O)N1CCC[C@H]1C(=O)N[C@@H](CCCNC(=N)N)C(=O)c1nc2ccccc2[nH]1 | 9.6
25 | N=C(N)NCCC[C@@H]1NC(=O)C2CCCN2C(=O)[C@@H](NC=O)CNC(=O)/C=C/[C@H](Cc2ccc(O)cc2)NC(=O)[C@@H](Cc2ccccc2)NC(=O)C1=O (stereo partly drawn) | 4.1
26 | N=C(N)NCCC[C@@H]1NC(=O)C2CCCN2C(=O)[C@@H](Cc2ccccc2)NC(=O)CCCCCCCNC(=O)C1=O (stereo partly drawn) | 24
27 | CN[C@H](Cc1ccccc1)C(=O)N1CCC[C@H]1C(=O)N[C@@H](CCCN=C(N)N)C(=O)c1nccn1C | 200
28 | CN[C@H](Cc1ccccc1)C(=O)N1CCC[C@H]1C(=O)N[C@@H](CCCN=C(N)N)C(=O)c1nc2ccccc2s1 | 0.2
29 | N=C(N)NCCC[C@@H]1NC(=O)C2CCCN2C(=O)[C@@H](NC(=O)Cc2ccccc2)CNC(=O)/C=C/[C@H](Cc2ccc(O)cc2)NC(=O)[C@@H](Cc2ccccc2)NC(=O)C1=O (stereo partly drawn) | 3.1
30 | CN[C@H](Cc1ccccc1)C(=O)N1CCC[C@H]1C(=O)N[C@@H](CCCN=C(N)N)C(=O)c1nc(O)c2ccccc2n1 | 15
31 | N=C(N)NCCC[C@@H]1NC(=O)C2CCCN2C(=O)[C@@H](NCCc2ccccc2)CNC(=O)/C=C/[C@H](Cc2ccc(O)cc2)NC(=O)[C@@H](Cc2ccccc2)NC(=O)C1=O (stereo partly drawn) | 1.5

molecular target: Tryptase (Homo sapiens, UniProt Q9BZJ3+Q15661+Q9NRR2); assay: Binding affinity against human alpha tryptase; assay type: protein assay; settings: not given

Row | Compound | Ki [nM]
32 | CC(=O)N1C[C@H](O)C[C@H]1C(=O)N[C@@H](CCCN=C(N)N)C(=O)c1nc2ccccc2s1 | 10
33 | N=C(N)NCCC[C@H](NC(=O)C1CCCC1)C(=O)c1nc2ccccc2s1 | 88
